Test results published in PMC5773651, “Customised in vitro model to detect human metabolism-dependent idiosyncratic drug-induced liver injury” (Archives of Toxicology, 2017).
Read-outs that look alike come from different tables or passages of the source.

Experiments:
HepG2 cells [1] = assay: Cell viability (PI), IC50, control HepG2 cells; type: cell-based; settings: Homo sapiens; control non-transduced HepG2; 24 h; unit inferred, tested range in µM; read-out: IC50 (cell viability), C
[2] = test system: HepG2 cells transduced with AdCYP2C9; assay: Cell viability (PI), IC50, AdCYP2C9-HepG2; type: cell-based; settings: Homo sapiens, unit inferred, tested range in µM
[3] = test system: HepG2 cells transduced with AdCYP2C19; assay: Cell viability (PI), IC50, AdCYP2C19-HepG2; type: cell-based; settings: Homo sapiens, unit inferred, tested range in µM
Procedure: (§1) For subculturing purposes, cells were detached by treatment with 0.25% trypsin/0.02% EDTA at 37 °C. For the adenovirus infection studies, cells were seeded in 96-well plates (5000 cells/well) and adenovirus-containing medium was added 48 h later. After 24 h, cells were transferred to the adenovirus-free medium and cultured for an additional 24-h period prior to the incubations performed with the test chemicals. To optimise the expression of the functional enzymes in the adenovirus-transduced HepG2 (Ad-HepG2) cells, different doses (MOI, multiplicity of infection, defined as plaque formation units per cell) of each adenovirus were tested.
(§2) The drugs included in the study were chosen based on previous information about their hepatotoxicity. Information on the potential mechanisms implicated in the toxicity of each compound and the major enzymes involved in their metabolism is summarised in Table 1. HepG2 or Ad-HepG2 (48 h post-infection) cells were exposed for 24 h to eight concentrations of the tested compounds. Each experimental condition was repeated independently three times (with three wells measured each time). The stock solutions of compounds were prepared in DMSO and were conveniently diluted in the culture medium to obtain the desired final concentrations. The final DMSO concentration in the culture medium was 0.5% (v/v), and the control cultures were treated with the same amount of solvent.
(§3) Following treatments, cells were simultaneously loaded with several fluorescent dyes to measure multiple biomarkers of cell toxicity. […] Information about the probes is summarised in Supplementary Table S2.
(§4) After incubating with dyes, cells were imaged by the Scan^R system (Olympus, Germany). Dyes were excited, and their fluorescence was monitored at the excitation and emission wavelengths at appropriate filter settings. The collected images were analysed using the Scan^R analysis module, which allows the simultaneous quantification of subcellular structures that are stained by different fluorescent probes.

[4] = test system: HepG2 cells transduced with AdCYP3A4; assay: Cell viability (PI), IC50, AdCYP3A4-HepG2; type: cell-based; settings: Homo sapiens, unit inferred, tested range in µM
Procedure: as §1, §2, §3, §4

[5] = test system: HepG2 cells transduced with AdCYP3A4; assay: HCS hepatotoxicity assay (MEC, TR), AdCYP3A4-HepG2; type: cell-based, human; settings: 24 h; for TR: TR = 100 x Cmax/lowest MEC; for MEC Apoptosis / MEC Calcium / MEC MMP / MEC Mitochondrial superoxide / MEC ROS: unit not given, tested range in µM
HepG2 cells [6] = settings: human, 24 h
Procedure: as §1, §2, §3, §4

[7] = test system: HepG2 cells co-transduced with AdCYP3A4 and AdCYP2C9; assay: HCS hepatotoxicity assay (MEC, TR), AdCYP3A4 + AdCYP2C9 HepG2; type: cell-based, human; settings: 24 h; for TR: TR = 100 x Cmax/lowest MEC; for MEC Apoptosis / MEC Calcium / MEC MMP / MEC Mitochondrial superoxide / MEC ROS: unit not given, tested range in µM
[8] = test system: HepG2 cells co-transduced with AdCYP3A4 and AdUGT2B7; assay: HCS hepatotoxicity assay (MEC, TR), AdCYP3A4 + AdUGT2B7 HepG2; type: cell-based, human; settings: 24 h; for TR: TR = 100 x Cmax/lowest MEC; for MEC Apoptosis / MEC Calcium / MEC MMP / MEC Mitochondrial superoxide / MEC ROS: unit not given, tested range in µM
[9] = test system: HepG2 cells transduced with CYP3A4 in the presence of CYP2C19; assay: HCS hepatotoxicity assay (MEC, TR), AdCYP3A4 + AdCYP2C19 HepG2; type: cell-based, human; settings: CYP3A4-4X + CYP2C19-1X, 24 h
Description: For all the compounds and studied parameters, the MEC led to at least a 20% variation in fluorescence intensity or in the corresponding morphological parameter compared to the untreated cultures.

[10] = ref Atienzar et al. ([2014]), Garside et al. ([2014]), Tolosa et al. ([2012b]); cited from earlier work
[11] = unit not given, tested range in µM

O=C(O)Cc1ccccc1Nc1c(Cl)cccc1Cl [Diclofenac]
IC50 (HepG2 cells [1]): 167 µM | IC50 ([2]; ADV CYP2C9 x1, 24 h, read-out: IC50 (cell viability), ADV dose x1): 42.1 µM | IC50 ([2]; ADV CYP2C9 x4, 24 h, read-out: IC50 (cell viability), ADV dose x4): 51.6 µM | IC50 ([2]; ADV CYP2C9 x10, 24 h, read-out: IC50 (cell viability), ADV dose x10): 15.5 µM | IC50 ([3]; ADV CYP2C19 x1, 24 h, read-out: IC50 (cell viability), ADV dose x1): 140 µM | IC50 ([3]; ADV CYP2C19 x4, 24 h, read-out: IC50 (cell viability), ADV dose x4): 158 µM | IC50 ([3]; ADV CYP2C19 x10, 24 h, read-out: IC50 (cell viability), ADV dose x10): 11.5 µM | IC50 ([4]; ADV CYP3A4 x1, 24 h, read-out: IC50 (cell viability), ADV dose x1): 126 µM | IC50 ([4]; ADV CYP3A4 x4, 24 h, read-out: IC50 (cell viability), ADV dose x4): 99 µM | IC50 ([4]; ADV CYP3A4 x10, 24 h, read-out: IC50 (cell viability), ADV dose x10): 2.8 µM | TR ([5]; AdCYP 3A4 1x): 42 | MEC Apoptosis ([5]; AdCYP 3A4 1x): 125 | MEC Calcium ([5]; AdCYP 3A4 1x): 10 | MEC MMP ([5]; AdCYP 3A4 1x): 125 | MEC Mitochondrial superoxide ([5]; AdCYP 3A4 1x): 50 | MEC ROS ([5]; AdCYP 3A4 1x): 10 | TR ([5]; AdCYP 3A4 4x): 84 | MEC Apoptosis ([5]; AdCYP 3A4 4x): 10 | MEC Calcium ([5]; AdCYP 3A4 4x): 10 | MEC MMP ([5]; AdCYP 3A4 4x): 125 | MEC Mitochondrial superoxide ([5]; AdCYP 3A4 4x): 5 | MEC ROS ([5]; AdCYP 3A4 4x): 5 | MEC Apoptosis (HepG2 cells [6]): 125 µM | MEC Calcium (HepG2 cells [6]): 50 | MEC MMP (HepG2 cells [6]): 250 | MEC Mitochondrial superoxide (HepG2 cells [6]): 125 | MEC ROS (HepG2 cells [6]): 50 | TR (HepG2 cells [6]): 8.4 | TR ([7]; CYP3A4-1X + CYP2C9-1X): 84 | MEC Apoptosis ([7]; CYP3A4-1X + CYP2C9-1X): 125 | MEC Calcium ([7]; CYP3A4-1X + CYP2C9-1X): 10 | MEC MMP ([7]; CYP3A4-1X + CYP2C9-1X): 125 | MEC Mitochondrial superoxide ([7]; CYP3A4-1X + CYP2C9-1X): 50 | MEC ROS ([7]; CYP3A4-1X + CYP2C9-1X): 5 | TR ([7]; CYP3A4-4X + CYP2C9-1X): 84 | MEC Apoptosis ([7]; CYP3A4-4X + CYP2C9-1X): 10 | MEC Calcium ([7]; CYP3A4-4X + CYP2C9-1X): 10 | MEC MMP ([7]; CYP3A4-4X + CYP2C9-1X): 125 | MEC Mitochondrial superoxide ([7]; CYP3A4-4X + CYP2C9-1X): 5 | MEC ROS ([7]; CYP3A4-4X + CYP2C9-1X): 5 | TR ([8]; CYP3A4-1X + UGT2B7): 84 | MEC Apoptosis ([8]; CYP3A4-1X + UGT2B7): 5 | MEC Calcium ([8]; CYP3A4-1X + UGT2B7): 10 | MEC MMP ([8]; CYP3A4-1X + UGT2B7): 50 | MEC Mitochondrial superoxide ([8]; CYP3A4-1X + UGT2B7): 5 | MEC ROS ([8]; CYP3A4-1X + UGT2B7): 5 | TR ([8]; CYP3A4-4X + UGT2B7): 84 | MEC Apoptosis ([8]; CYP3A4-4X + UGT2B7): 5 | MEC Calcium ([8]; CYP3A4-4X + UGT2B7): 5 | MEC MMP ([8]; CYP3A4-4X + UGT2B7): 50 | MEC Mitochondrial superoxide ([8]; CYP3A4-4X + UGT2B7): 5 | MEC ROS ([8]; CYP3A4-4X + UGT2B7): 5 | TR ([9]; TR = 100 x Cmax/lowest MEC): 42 | MEC Apoptosis [9, 11]: 50 | MEC Calcium [9, 11]: 50 | MEC MMP [9, 11]: 125 | MEC Mitochondrial superoxide [9, 11]: 10 | MEC ROS [9, 11]: 10 | Cmax [10]: 4.2 µM
